Experimental data as given in patent US12186331B2, “Compositions comprising at least one n-acetylated and at least one fucosylated oligosaccharide for use in the promotion of digestive capacity in infants and young children” (SOCIETE DES PRODUITS NESTLE S.A., priority 2017, dated 2025).
Entries after “also recorded” stand apart in the source; their conditions may differ.

System: villi in the ileum of IUGR rats
Assay: Villi length in the ileum of young rats with intra-uterine growth retardation (IUGR) fed HMO-supplemented diet
Type: in vivo, Sprague-Dawley rats
Conditions: IUGR rat pups, 3 g/kg body weight by gavage d7-d21, 4.5% in diet d22-d57, sacrifice at day 57, compared with IUGR group and other groups
Source text: Three groups of time-mated pregnant Sprague-Dawley female rats were bought from Charles River laboratories. One group was submitted to food restriction of 60% during the last 10 days of gestation and their offspring were cross-fostered to normally fed rats. A second group of pregnant females was normally fed and their offspring cross-fostered among the same group of dams. […] Normal-weight offspring born from unrestricted dams and fed a normal non-supplemented diet; • IUGR group (negative control; n=20): IUGR rats being fed a normal diet after birth; • IUGR rats+HMO (test groups): During the experiment, they were reared by their mothers for 21 days and supplemented with HMOs (2FL, LNnT or the Mix of 2FL and LNnT). At weaning, they were fed a diet supplemented with the same HMOs, see details below. […] All rat pups were fed from birth (d=1) up to 57 days (d=57) based on the following protocol: • d1 to d6: all groups of rats were nursed by dam (mothers' milk only); • d7 to d21: all rats were nursed by dam (mothers' milk only). But in the test groups, 3 g/kg body weight of HMO were also administered by gavage: • 3 g/kg body weight of 2FL, for the IUGR/2FL group; • 3 g/kg body weight of LNnT, for the IUGR/LNnT group; • 3 g/kg body weight of a mix of LNnT and 2FL at a 1:2 weight ratio, for the IUGR/HMOs mix group; • […] to […]: all rats were fed a diet as detailed in Table 2 below. Rats were sacrificed at day 57 after a 6-hr fasting period and samples of the small intestine were collected. The length of the villi was measured on a sample of the ileum. One 1-cm sample from the ileum (1 cm cranial from caecum) was collected and flushed with PBS (Sigma D8537). This section was fixed and processed accordingly for histological and morphometric analysis. Two consecutive 4 μm-thick sections of fixed tissue were stained manually with hematoxylin and eosin to determine villus height. […] Ten randomly selected villi were measured in two different segments to determine the mean villi length.

Molecule | mean villi length in the ileum | mean villi length in the ileum (listed as 2-FL)
2′-fucosyllactose [2FL] | neither 2FL, nor LNnT achieved a statistically significant effect when used alone | no significant difference with the IUGR group
CC(=O)N[C@H]1[C@H](O[C@H]2[C@@H](O)[C@@H](CO)O[C@@H](O[C@H]3[C@H](O)[C@@H](O)C(O)O[C@@H]3CO)[C@@H]2O)O[C@H](CO)[C@@H](O[C@@H]2O[C@H](CO)[C@H](O)[C@H](O)[C@H]2O)[C@@H]1O (mixture of isomers) [LNnT, lacto-N-neotetraose] | neither 2FL, nor LNnT achieved a statistically significant effect when used alone; also recorded: no significant difference with the IUGR group | –
